Results as given in PubChem BioAssay (NCI).
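Where inhibition never reached the appropriate level, the endpoint shown equals the highest concentration tested. Otherwise, values were interpolated linearly from a five-concentration, 48-hour dose response in 96-well plates. TGI: total growth inhibition.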

Legend:
Assay in all cases: NCI anticancer screen, dose series, 48 h
DU-145 prostate = system: DU-145 prostate
EKVX NSCLC = system: EKVX NSCLC
HL-60(TB) leukemia = system: HL-60(TB) leukemia
HT29 colon = system: HT29 colon
MCF7 breast = system: MCF7 breast
NCI-H23 lung = system: NCI-H23 lung
OVCAR-5 ovarian = system: OVCAR-5 ovarian
PC-3 prostate = system: PC-3 prostate
SK-MEL-2 melanoma = system: SK-MEL-2 melanoma
UO-31 renal = system: UO-31 renal

SMILES | TGI (DU-145 prostate) | TGI (EKVX NSCLC) | TGI (HL-60(TB) leukemia) | TGI (HT29 colon) | TGI (MCF7 breast) | TGI (NCI-H23 lung) | TGI (OVCAR-5 ovarian) | TGI (PC-3 prostate) | TGI (SK-MEL-2 melanoma) | TGI (UO-31 renal)
O=C(/C=C\Nc1ccccc1O)C(F)(F)F | > 100 µM | > 100 µM | 67.8 µM | > 100 µM | > 100 µM | > 100 µM | > 100 µM | > 100 µM | > 100 µM | > 100 µM
O=[N+]([O-])/C(Cl)=C(/C(Cl)=C(Cl)Cl)N1CCCCC1 | 27 µM | 39.7 µM | 4.83 µM | 29.5 µM | 17.4 µM | 22.2 µM | 29.2 µM | 43.8 µM | 48 µM | 25.7 µM
Clc1cc(C(c2cc(Cl)sc2Cl)c2cc(Cl)sc2Cl)c(Cl)s1 | > 100 µM | > 100 µM | > 100 µM | > 100 µM | > 100 µM | > 100 µM | > 100 µM | > 100 µM | > 100 µM | > 100 µM
O=c1ccn(-c2ccccn2)c(=O)n1-c1ccccn1 | > 100 µM | > 100 µM | > 100 µM | > 100 µM | > 100 µM | > 100 µM | > 100 µM | > 100 µM | > 100 µM | > 100 µM
